Ends that are not written are not given here.

The subject of assay [1] is peptide-pulsed A24LCL. Nature of the assay: IFN-gamma ELISPOT assay on CTLs induced with peptide (HLA-A*2402). The settings on record: CTLs from HLA-A*2402 positive donor, 3 rounds of stimulation, day 21; vs control wells without peptide. The assay is classed as cell-based, human. From the text: Monocyte-derived dendritic cells (DCs) were used as antigen-presenting cells (APCs) to induce cytotoxic T lymphocyte (CTL) responses against peptides presented on human leukocyte antigen (HLA). DCs were generated in vitro as described elsewhere (Nakahara S et al., Cancer Res 2003 Jul. 15, 63(14): 4112-8). Specifically, peripheral blood mononuclear cells (PBMCs) isolated from a normal volunteer (HLA-A*2402 positive) by Ficoll-Plaque (Pharmacia) solution were separated by adherence to a plastic tissue culture dish (Becton Dickinson) so as to enrich them as the monocyte fraction. The monocyte-enriched population was cultured in the presence of 1,000 U/ml of granulocyte-macrophage colony-stimulating factor (GM-CSF) (R&D System) and 1,000 U/ml of interleukin (IL)-4 (R&D System) in AIM-V Medium (Invitrogen) containing 2% heat-inactivated autologous serum (AS). After 7 days of culture, the cytokine-induced DCs were pulsed with 20 micro-g/ml of each of the synthesized peptides in the presence of 3 micro-g/ml of beta 2-microglobulin for 3 hrs at 37 degrees C. in AIM-V Medium. The generated cells appeared to express DC-associated molecules, such as CD80, CD83, CD86 and HLA class II, on their cell surfaces (data not shown). These peptide-pulsed DCs were then inactivated by X-irradiation (20 Gy) and mixed at a 1:20 ratio with autologous CD8+ T cells, obtained by positive selection with CD8 positive Isolation Kit (Dynal). These cultures were set up in 48-well plates (Corning); each well contained 1.5×10^4 peptide-pulsed DCs, 3×10^5 CD8+ T cells and 10 ng/ml of IL-7 (R&D System) in 0.5 ml of AIM-V/2% AS medium. Three days later, these cultures were supplemented with IL-2 (CHIRON) to a final concentration of 20 IU/ml. On days 7 and 14, the T cells were further stimulated with the autologous peptide-pulsed DCs. The DCs were prepared each time by the same way described above. CTL was tested against peptide-pulsed A24LCL cells after the 3rd round of peptide stimulation on day 21 (Tanaka H et al., Br J Cancer 2001 Jan. 5, 84(1): 94-9; Umano Y et al., Br J Cancer 2001 Apr. 20, 84(8): 1052-7; Uchida N et al., Clin Cancer Res 2004 Dec. 15, 10(24): 8577-86; Suda T et al., Cancer Sci 2006 May, 97(5): 411-9; Watanabe T et al., Cancer Sci 2005 August, 96(8): 498-506).
(§1) To examine specific CTL activity, interferon (IFN)-gamma enzyme-linked immunospot (ELISPOT) assay and IFN-gamma enzyme-linked immunosorbent assay (ELISA) were performed. Specifically, peptide-pulsed A24LCL (1×10^4/well) was prepared as stimulator cells. Cultured cells in 48 wells were used as responder cells. IFN-gamma ELISPOT assay and IFN-gamma ELISA assay were performed under manufacture procedure.

For assay [2], the system named is peptide-pulsed A24LCL. In words: IFN-gamma ELISA assay of CTL lines (HLA-A*2402). The assay is classed as cell-based, human. The settings on record: target cells pulsed with corresponding peptide vs without peptide pulse. The method, then: CTLs were expanded in culture using the method similar to the one described by Riddell et al. (Walter E A et al., N Engl J Med 1995 Oct. 19, 333(16): 1038-44; Riddell S R et al., Nat Med 1996 February, 2(2): 216-23). A total of 5×10^4 CTLs were suspended in 25 ml of AIM-V/5% AS medium with 2 kinds of human B-lymphoblastoid cell lines, inactivated by Mitomycin C, in the presence of 40 ng/ml of anti-CD3 monoclonal antibody (Pharmingen). One day after initiating the cultures, 120 IU/ml of IL-2 were added to the cultures. The cultures were fed with fresh AIM-V/5% AS medium containing 30 IU/ml of IL-2 on days 5, 8 and 11 (Tanaka H et al., Br J Cancer 2001 Jan. 5, 84(1): 94-9; Umano Y et al., Br J Cancer 2001 Apr. 20, 84(8): 1052-7; Uchida N et al., Clin Cancer Res 2004 Dec. 15, 10(24): 8577-86; Suda T et al., Cancer Sci 2006 May, 97(5): 411-9; Watanabe T et al., Cancer Sci 2005 August, 96(8): 498-506).
as §1

Assay [3] has as its system peptide-pulsed A24LCL. Nature of the assay: IFN-gamma ELISA assay of CTL clones (HLA-A*2402). Conditions: clones by limiting dilution; target cells pulsed with peptide. Type of assay: cell-based, human. The method, then:
The dilutions were made to have 0.3, 1, and 3 CTLs/well in 96 round-bottomed micro titer plate (Nalge Nunc International). CTLs were cultured with 1×10^4 cells/well of 2 kinds of human B-lymphoblastoid cell lines, 30 ng/ml of anti-CD3 antibody, and 125 U/ml of IL-2 in a total of […] of AIM-V Medium containing 5% AS. 50 micro-1/well of IL-2 were added to the medium 10 days later so to reach a final concentration of 125 U/ml IL-2. CTL activity was tested on the 14th day, and CTL clones were expanded using the same method as described above (Uchida N et al., Clin Cancer Res 2004 Dec. 15, 10(24): 8577-86; Suda T et al., Cancer Sci 2006 May, 97(5): 411-9; Watanabe T et al., Cancer Sci 2005 August, 96(8): 498-506).
as §1

Assay [4] concerns COS7 cells transfected with C6orf167 and HLA-A*2402. Nature of the assay: Specific CTL activity against target cells exogenously expressing C6orf167 and HLA-A*2402. The assay is classed as cell-based, African green monkey. Conditions: for Specific CTL activity against control COS7 cells: COS7 transfected with either full length C6orf167 or HLA-A*2402 alone; for Specific CTL activity against COS7 cells expressing both C6orf167 and HLA-A*2402: CTL lines raised by the peptide as effector cells. From the text:
The cDNA encoding an open reading frame of target genes or HLA-A*2402 was amplified by PCR. The PCR-amplified product was cloned into pCAGGS vector. The plasmids were transfected into COS7, which is the target genes and HLA-A24-negative cell line, using lipofectamine 2000 (Invitrogen) according to the manufacturer's recommended procedures. After 2 days from transfection, the transfected cells were harvested with versene (Invitrogen) and used as the target cells (5×10^4 cells/well) for CTL activity assay.
The established CTL lines raised against these peptides were examined for their ability to recognize target cells that endogenously express C6orf167 and HLA-A*2402 molecule. Specific CTL activity against COS7 cells which transfected with both the full length of C6orf167 and HLA-A*2402 molecule gene (a specific model for the target cells that exogenously express C6orf167 and HLA-A*2402 gene) was tested using the CTL lines raised by corresponding peptide as the effecter cells. COS7 cells transfected with either full length of C6orf167 genes or HLA-A*2402 were prepared as controls.

Consider LYIGHLSEL [SEQ ID NO: 2], for which the “Peptide specific CTL activity: IFN-gamma production by ELISPOT” value (from here on “Peptide specific CTL activity”) in the assay with peptide-pulsed A24LCL [1] is recorded as “potent IFN-gamma production”. The “IFN-gamma production of CTL lines by ELISA” value in the assay on peptide-pulsed A24LCL [2] was “potent IFN-gamma production”. Also, the “IFN-gamma production of CTL clones by ELISA” value with peptide-pulsed A24LCL [3] is reported as “Potent IFN-gamma productions”. For the same substance, in assay [4], the “Specific CTL activity against control COS7 cells” value is “no significant specific CTL activity”; the “Specific CTL activity against COS7 cells expressing both C6orf167 and HLA-A*2402” value is on record as “potent CTL activity”.
On to RYYYQVYSI [SEQ ID NO: 9], for which the “Peptide specific CTL activity” value with peptide-pulsed A24LCL [1] is “potent IFN-gamma production”. The “IFN-gamma production of CTL lines by ELISA” value in the assay on peptide-pulsed A24LCL [2] is listed as “potent IFN-gamma production”. In addition, the “IFN-gamma production of CTL clones by ELISA” value in the assay on peptide-pulsed A24LCL [3] is listed as “Potent IFN-gamma productions”. Besides, in assay [4], the “Specific CTL activity against control COS7 cells” value is given as “no significant specific CTL activity”; the “Specific CTL activity against COS7 cells expressing both C6orf167 and HLA-A*2402” value was “potent CTL activity”.
For VYGHQFMNL [SEQ ID NO: 7], the “Peptide specific CTL activity” value in the assay with peptide-pulsed A24LCL [1] was “potent IFN-gamma production”. For the same substance, the “IFN-gamma production of CTL lines by ELISA” value with peptide-pulsed A24LCL [2] is “potent IFN-gamma production”. Further, the “IFN-gamma production of CTL clones by ELISA” value in the assay with peptide-pulsed A24LCL [3] was “Potent IFN-gamma productions”. In assay [4], the “Specific CTL activity against control COS7 cells” value is on record as “no significant specific CTL activity”; the “Specific CTL activity against COS7 cells expressing both C6orf167 and HLA-A*2402” value was “potent CTL activity”.
With “IYIDgVQEVF (IYIDGVQEVF; not fully specified; printed as IYIDgVQEVF) [SEQ ID NO: 33]”, in the assay on peptide-pulsed A24LCL [1], the “Peptide specific CTL activity” value is given as “potent IFN-gamma production”. For the same substance, the “IFN-gamma production of CTL lines by ELISA” value with peptide-pulsed A24LCL [2] was “potent IFN-gamma production”. In addition, in assay [4], the “Specific CTL activity against control COS7 cells” value is “no significant specific CTL activity”; the “Specific CTL activity against COS7 cells expressing both C6orf167 and HLA-A*2402” value is given as “potent CTL activity”.
On to LVLEILYML [SEQ ID NO: 30], for which, in the assay on peptide-pulsed A24LCL [1], the “Peptide specific CTL activity” value is “potent IFN-gamma production”. The “IFN-gamma production of CTL lines by ELISA” value in the assay with peptide-pulsed A24LCL [2] is listed as “potent IFN-gamma production”. In addition, the “IFN-gamma production of CTL clones by ELISA” value with peptide-pulsed A24LCL [3] is “Potent IFN-gamma productions”.
As to NFFSLFLLL [SEQ ID NO: 16], the “Peptide specific CTL activity” value in the assay on peptide-pulsed A24LCL [1] is “potent IFN-gamma production”. The “IFN-gamma production of CTL lines by ELISA” value in the assay with peptide-pulsed A24LCL [2] is reported as “potent IFN-gamma production”. The “IFN-gamma production of CTL clones by ELISA” value in the assay with peptide-pulsed A24LCL [3] is given as “Potent IFN-gamma productions”.
Take MYLHCCLTL [SEQ ID NO: 4]: the “Peptide specific CTL activity” value in the assay on peptide-pulsed A24LCL [1] is recorded as “potent IFN-gamma production”. Besides, the “IFN-gamma production of CTL lines by ELISA” value in the assay with peptide-pulsed A24LCL [2] is “potent IFN-gamma production”. Moreover, the “IFN-gamma production of CTL clones by ELISA” value in the assay with peptide-pulsed A24LCL [3] was “Potent IFN-gamma productions”.
